According to EP0908457B1, “3-(1,2-benzisothiazol- and isoxazol-5-Y1)-2,4(1H,3H)-pyrimidinedione or thione and 3-(1,2-benzisothiazol- and isoxazol-5-y1)-4(3H)-pyrimidinone or thione herbicidal agents” (BASF AKTIENGESELLSCHAFT, priority 1997, dated 1999):

Columns and labels:
[1] = system: Echinochloa oryzoides (Ard.) Fritsch.; experiment: Preemergence weed control under flooded paddy conditions, ECHORC (Watergrass (Calif.)); type: in vivo; conditions: preemergence, flooded paddy, rated three to four weeks after treatment; note: meaning of each grade not given here
[2] = system: Cyperus iria; experiment: Preemergence weed control under flooded paddy conditions, CYPIR (Rice Flatsedge); type: in vivo; conditions: preemergence, flooded paddy, rated three to four weeks after treatment; note: meaning of each grade not given here
[3] = system: Cyperus serotinus, Rottb.; experiment: Preemergence weed control under flooded paddy conditions, CYPSE (Flatsedge); type: in vivo; conditions: preemergence, rated three to four weeks after treatment; note: meaning of each grade not given here
[4] = system: Monochoria vaginalis, Presl.; experiment: Preemergence weed control under flooded paddy conditions, MOOVA (Monochoria); type: in vivo; conditions: preemergence, flooded paddy, rated three to four weeks after treatment; note: meaning of each grade not given here
[5] = system: Sagittaria pygmaea, L.; experiment: Preemergence weed control under flooded paddy conditions, SAGPY (Arrowhead (Pygmaea)); type: in vivo; conditions: preemergence, flooded paddy, rated three to four weeks after treatment; note: meaning of each grade not given here
[6] = system: Echinochloa oryzoides (Ard.) Fritsch.; experiment: Postemergence weed control under flooded paddy conditions, ECHORC (Watergrass (Calif.)); type: in vivo; conditions: rated three to four weeks after treatment
[7] = system: Cyperus iria; experiment: Postemergence weed control under flooded paddy conditions, CYPIR (Rice Flatsedge); type: in vivo; conditions: rated three to four weeks after treatment
[8] = system: Cyperus serotinus, Rottb.; experiment: Postemergence weed control under flooded paddy conditions, CYPSE (Flatsedge); type: in vivo; conditions: rated three to four weeks after treatment
[9] = system: Monochoria vaginalis, Presl.; experiment: Postemergence weed control under flooded paddy conditions, MOOVA (Monochoria); type: in vivo; conditions: rated three to four weeks after treatment
[10] = system: Sagittaria pygmaea, L.; experiment: Postemergence weed control under flooded paddy conditions, SAGPY (Arrowhead (Pygmaea)); type: in vivo; conditions: rated three to four weeks after treatment
[11] = system: Oryza sativa, (L.) Tebonnet; experiment: Rice tolerance to post-transplant applications under flooded paddy conditions (Example 187), ORYSAT (Rice, Tebonnet); conditions: rated three to four weeks after treatment
[12] = system: Oryza sativa, (L.) Tebonnet; experiment: Rice tolerance to post-transplant applications under flooded paddy conditions (Example 188), ORYSAT (Rice, Tebonnet); conditions: rated three to four weeks after treatment

COc1cc(C)ccc1-c1nsc2ccc(-n3c(=O)cc(C(F)(F)F)n(C)c3=O)cc12 [Example 7, 3-[3-(2-Methoxy-p-tolyl)-1,2-benzisothiazol-5-yl]-1-methyl-6-(trifluoromethyl)-2,4(1H,3H)-pyrimidinedione]
6.0: herbicidal effect rating, SAGPY ([5]; 0.0313 kg/ha) | herbicidal effect rating, CYPSE ([8]; Rate 0.0625 kg/ha) | herbicidal effect rating, ORYSAT (rice tolerance) ([11]; 0.0313 kg/ha)
2.0: herbicidal effect rating, CYPSE ([8]; Rate 0.0313 kg/ha) | herbicidal effect rating, SAGPY ([10]; Rate 0.0625 kg/ha)
7.0: herbicidal effect rating, CYPSE ([3]; 0.0313 kg/ha) | herbicidal effect rating, CYPSE ([3]; 0.0625 kg/ha) | herbicidal effect rating, CYPSE ([3]; 0.2500 kg/ha) | herbicidal effect rating, ORYSAT (rice tolerance) ([11]; 0.1250 kg/ha) | herbicidal effect rating, ORYSAT (rice tolerance) ([11]; 0.2500 kg/ha) | herbicidal effect rating, ORYSAT (rice tolerance) ([12]; Rate 0.0313 kg/ha) | herbicidal effect rating, ORYSAT (rice tolerance) ([12]; Rate 0.0625 kg/ha) | herbicidal effect rating, ORYSAT (rice tolerance) ([12]; Rate 0.1250 kg/ha) | herbicidal effect rating, ORYSAT (rice tolerance) ([12]; Rate 0.2500 kg/ha)
4.0: herbicidal effect rating, SAGPY ([10]; Rate 0.1250 kg/ha)
0.0: herbicidal effect rating, SAGPY ([10]; Rate 0.0313 kg/ha)
8.0: herbicidal effect rating, CYPSE ([3]; 0.1250 kg/ha) | herbicidal effect rating, SAGPY ([5]; 0.0625 kg/ha) | herbicidal effect rating, CYPSE ([8]; Rate 0.5000 kg/ha) | herbicidal effect rating, ORYSAT (rice tolerance) ([11]; 0.0625 kg/ha) | herbicidal effect rating, ORYSAT (rice tolerance) ([12]; Rate 0.5000 kg/ha)
9.0: herbicidal effect rating, ECHORC ([1]; 0.0313 kg/ha) | herbicidal effect rating, ECHORC ([1]; 0.0625 kg/ha) | herbicidal effect rating, ECHORC ([1]; 0.1250 kg/ha) | herbicidal effect rating, ECHORC ([1]; 0.2500 kg/ha) | herbicidal effect rating, ECHORC ([1]; 0.5000 kg/ha) | herbicidal effect rating, CYPIR ([2]; 0.0313 kg/ha) | herbicidal effect rating, CYPIR ([2]; 0.0625 kg/ha) | herbicidal effect rating, CYPIR ([2]; 0.1250 kg/ha) | herbicidal effect rating, CYPIR ([2]; 0.2500 kg/ha) | herbicidal effect rating, CYPIR ([2]; 0.5000 kg/ha) | herbicidal effect rating, CYPSE ([3]; 0.5000 kg/ha) | herbicidal effect rating, MOOVA ([4]; 0.0313 kg/ha) | herbicidal effect rating, MOOVA ([4]; 0.0625 kg/ha) | herbicidal effect rating, MOOVA ([4]; 0.1250 kg/ha) | herbicidal effect rating, MOOVA ([4]; 0.2500 kg/ha) | herbicidal effect rating, MOOVA ([4]; 0.5000 kg/ha) | herbicidal effect rating, SAGPY ([5]; 0.1250 kg/ha) | herbicidal effect rating, SAGPY ([5]; 0.2500 kg/ha) | herbicidal effect rating, SAGPY ([5]; 0.5000 kg/ha) | herbicidal effect rating, ECHORC ([6]; Rate 0.0313 kg/ha) | herbicidal effect rating, ECHORC ([6]; Rate 0.0625 kg/ha) | herbicidal effect rating, ECHORC ([6]; Rate 0.1250 kg/ha) | herbicidal effect rating, ECHORC ([6]; Rate 0.2500 kg/ha) | herbicidal effect rating, ECHORC ([6]; Rate 0.5000 kg/ha) | herbicidal effect rating, CYPIR ([7]; Rate 0.0313 kg/ha) | herbicidal effect rating, CYPIR ([7]; Rate 0.0625 kg/ha) | herbicidal effect rating, CYPIR ([7]; Rate 0.1250 kg/ha) | herbicidal effect rating, CYPIR ([7]; Rate 0.2500 kg/ha) | herbicidal effect rating, CYPIR ([7]; Rate 0.5000 kg/ha) | herbicidal effect rating, CYPSE ([8]; Rate 0.1250 kg/ha) | herbicidal effect rating, CYPSE ([8]; Rate 0.2500 kg/ha) | herbicidal effect rating, MOOVA ([9]; Rate 0.0313 kg/ha) | herbicidal effect rating, MOOVA ([9]; Rate 0.0625 kg/ha) | herbicidal effect rating, MOOVA ([9]; Rate 0.1250 kg/ha) | herbicidal effect rating, MOOVA ([9]; Rate 0.2500 kg/ha) | herbicidal effect rating, MOOVA ([9]; Rate 0.5000 kg/ha) | herbicidal effect rating, SAGPY ([10]; Rate 0.2500 kg/ha) | herbicidal effect rating, SAGPY ([10]; Rate 0.5000 kg/ha) | herbicidal effect rating, ORYSAT (rice tolerance) ([11]; 0.5000 kg/ha)

Cn1c(C(F)(F)F)cc(=O)n(-c2ccc3snc(-c4ccccc4)c3c2)c1=O [Example 4, 1-Methyl-3-(3-phenyl-1,2-benzisothiazol-5-yl)-6-(trifluoromethyl)-2,4(1H,3H)-pyrimidinedione]
9.0: herbicidal effect rating, ECHORC ([1]; 0.0313 kg/ha) | herbicidal effect rating, ECHORC ([1]; 0.0625 kg/ha) | herbicidal effect rating, ECHORC ([1]; 0.1250 kg/ha) | herbicidal effect rating, ECHORC ([1]; 0.2500 kg/ha) | herbicidal effect rating, ECHORC ([1]; 0.5000 kg/ha) | herbicidal effect rating, CYPIR ([2]; 0.0313 kg/ha) | herbicidal effect rating, CYPIR ([2]; 0.0625 kg/ha) | herbicidal effect rating, CYPIR ([2]; 0.1250 kg/ha) | herbicidal effect rating, CYPIR ([2]; 0.2500 kg/ha) | herbicidal effect rating, CYPIR ([2]; 0.5000 kg/ha) | herbicidal effect rating, CYPSE ([3]; 0.1250 kg/ha) | herbicidal effect rating, CYPSE ([3]; 0.2500 kg/ha) | herbicidal effect rating, CYPSE ([3]; 0.5000 kg/ha) | herbicidal effect rating, MOOVA ([4]; 0.0313 kg/ha) | herbicidal effect rating, MOOVA ([4]; 0.0625 kg/ha) | herbicidal effect rating, MOOVA ([4]; 0.1250 kg/ha) | herbicidal effect rating, MOOVA ([4]; 0.2500 kg/ha) | herbicidal effect rating, MOOVA ([4]; 0.5000 kg/ha) | herbicidal effect rating, SAGPY ([5]; 0.2500 kg/ha) | herbicidal effect rating, SAGPY ([5]; 0.5000 kg/ha) | herbicidal effect rating, ECHORC ([6]; Rate 0.0625 kg/ha) | herbicidal effect rating, ECHORC ([6]; Rate 0.1250 kg/ha) | herbicidal effect rating, ECHORC ([6]; Rate 0.2500 kg/ha) | herbicidal effect rating, ECHORC ([6]; Rate 0.5000 kg/ha) | herbicidal effect rating, CYPIR ([7]; Rate 0.0625 kg/ha) | herbicidal effect rating, CYPIR ([7]; Rate 0.1250 kg/ha) | herbicidal effect rating, CYPIR ([7]; Rate 0.2500 kg/ha) | herbicidal effect rating, CYPIR ([7]; Rate 0.5000 kg/ha) | herbicidal effect rating, CYPSE ([8]; Rate 0.5000 kg/ha) | herbicidal effect rating, MOOVA ([9]; Rate 0.0625 kg/ha) | herbicidal effect rating, MOOVA ([9]; Rate 0.1250 kg/ha) | herbicidal effect rating, MOOVA ([9]; Rate 0.2500 kg/ha) | herbicidal effect rating, MOOVA ([9]; Rate 0.5000 kg/ha) | herbicidal effect rating, SAGPY ([10]; Rate 0.2500 kg/ha) | herbicidal effect rating, SAGPY ([10]; Rate 0.5000 kg/ha)
4.0: herbicidal effect rating, CYPSE ([8]; Rate 0.0625 kg/ha) | herbicidal effect rating, ORYSAT (rice tolerance) ([11]; 0.0313 kg/ha) | herbicidal effect rating, ORYSAT (rice tolerance) ([12]; Rate 0.0625 kg/ha)
3.0: herbicidal effect rating, SAGPY ([10]; Rate 0.0313 kg/ha) | herbicidal effect rating, ORYSAT (rice tolerance) ([12]; Rate 0.0313 kg/ha)
8.0: herbicidal effect rating, CYPIR ([7]; Rate 0.0313 kg/ha) | herbicidal effect rating, MOOVA ([9]; Rate 0.0313 kg/ha) | herbicidal effect rating, ORYSAT (rice tolerance) ([11]; 0.2500 kg/ha) | herbicidal effect rating, ORYSAT (rice tolerance) ([11]; 0.5000 kg/ha) | herbicidal effect rating, ORYSAT (rice tolerance) ([12]; Rate 0.2500 kg/ha) | herbicidal effect rating, ORYSAT (rice tolerance) ([12]; Rate 0.5000 kg/ha)
7.0: herbicidal effect rating, ECHORC ([6]; Rate 0.0313 kg/ha) | herbicidal effect rating, CYPSE ([8]; Rate 0.1250 kg/ha) | herbicidal effect rating, CYPSE ([8]; Rate 0.2500 kg/ha) | herbicidal effect rating, ORYSAT (rice tolerance) ([11]; 0.0625 kg/ha) | herbicidal effect rating, ORYSAT (rice tolerance) ([11]; 0.1250 kg/ha) | herbicidal effect rating, ORYSAT (rice tolerance) ([12]; Rate 0.1250 kg/ha)
2.0: herbicidal effect rating, CYPSE ([3]; 0.0625 kg/ha) | herbicidal effect rating, SAGPY ([5]; 0.0313 kg/ha) | herbicidal effect rating, SAGPY ([5]; 0.0625 kg/ha) | herbicidal effect rating, CYPSE ([8]; Rate 0.0313 kg/ha) | herbicidal effect rating, SAGPY ([10]; Rate 0.0625 kg/ha)
6.0: herbicidal effect rating, SAGPY ([5]; 0.1250 kg/ha) | herbicidal effect rating, SAGPY ([10]; Rate 0.1250 kg/ha)
